Experimental data taken from patent publication US4604380A, “C-23-substituted mycaminosyltylonolide compounds, pharmaceutical compositions and methods of use” (Eli Lilly and Company, priority 1985, dated 1986).
Values after ≈ are worked out from the molar mass of the structure shown. Read-outs that look alike come from different tables or passages of the source.

Legend:
[1] = tested on: Streptococcus pneumoniae Park I; assay: microbe, parasite or virus in culture; type: cell-based; settings: read-out: MIC
Protocol: (§1) The MIC's s in Table III were determined by standard agar-dilution assays. The MIC's in Table IV were obtained using a conventional broth-dilution microtiter test.

Streptococcus pyogenes = assay: ED50 vs Streptococcus pyogenes experimental infection in mice (Table VI); type: in vivo; settings: two doses, several values = results from more than one test
Protocol: (§2) Certain formula 1a compounds have also shown in vivo antimicrobial activity against experimental bacterial infections. When two doses of test compound were administered to mice in experimental infections, the activity observed was measured as an ED50 value [effective dose in mg/kg to protect 50% of the test animals: see Warren Wick, et al., J. Bacteriol. 81, 233-235 (1961)].

[2] = tested on: Staphylococcus epidermidis 222; assay: MIC, standard agar-dilution assay (Table III); type: cell-based
Protocol: as §1

[3] = tested on: Staphylococcus aureus X400; assay: MIC, standard agar-dilution assay (Table III); type: cell-based
Protocol: as §1

[4] = tested on: Streptococcus pyogenes C203; assay: MIC, standard agar-dilution assay (Table III); type: cell-based; settings: agar dilution; Streptococcus pyogenes C203; read-out: MIC
Protocol: as §1

[5] = tested on: Staphylococcus aureus X1.1; assay: MIC, standard agar-dilution assay (Table III); type: cell-based
Protocol: as §1

[6] = tested on: Haemophilus influenzae C.L.; assay: MIC, standard agar-dilution assay (Table III); type: cell-based
Protocol: as §1

[7] = tested on: Streptococcus Group D 2041; assay: MIC, standard agar-dilution assay (Table III); type: cell-based; settings: GROUPD2041
Protocol: as §1

[8] = tested on: Streptococcus Group D X66; assay: MIC, standard agar-dilution assay (Table III); type: cell-based
Protocol: as §1

[9] = tested on: Staphylococcus epidermidis EPI1; assay: MIC, standard agar-dilution assay (Table III); type: cell-based
Protocol: as §1

[10] = tested on: Haemophilus influenzae 76; assay: MIC, standard agar-dilution assay (Table III); type: cell-based; settings: agar dilution; Haemophilus influenzae 76, ampicillin-resistant strain; read-out: MIC
Protocol: as §1

[11] = tested on: Staphylococcus aureus V41; assay: MIC, standard agar-dilution assay (Table III); type: cell-based; settings: Staphylococcus aureus V41, penicillin-resistant strain
Protocol: as §1

[12] = tested on: Staphylococcus aureus S13E; assay: MIC, standard agar-dilution assay (Table III); type: cell-based
Protocol: as §1

Staphylococcus aureus = assay: ED50 vs. Staphylococcus aureus experimental infection in mice (Table V); type: in vivo; settings: sc, subcutaneous, two doses, dose protecting 50% of animals, read-out: ED50 Subcutaneous
Protocol: as §2

[13] = tested on: Streptococcous pneumoniae; assay: ED50 vs. Streptococcous pneumoniae experimental infection in mice (Table VII); type: in vivo; settings: Mus musculus, sc, subcutaneous, two doses, read-out: ED50 Subcutaneous
Protocol: as §2

[14] = tested on: Mycoplasma gallisepticum 15E; assay: MIC, conventional broth-dilution microtiter test (Table IV); type: cell-based; settings: Mycoplasmoides gallisepticum; broth-dilution microtiter; Mycoplasma gallisepticum 15E; read-out: MIC
Protocol: as §1

[15] = tested on: Pasteurella multocida 68C; assay: as above; type: cell-based; settings: broth-dilution microtiter; Pasteurella multocida 68C; read-out: MIC
Protocol: as §1

[16] = tested on: Mycoplasma gallisepticum 29C; assay: as above; type: cell-based; settings: Mycoplasmoides gallisepticum; broth-dilution microtiter; Mycoplasma gallisepticum 29C; read-out: MIC
Protocol: as §1

[17] = tested on: Pasteurella multocida 17E; assay: as above; type: cell-based; settings: broth-dilution microtiter; Pasteurella multocida 17E, bovine isolate; read-out: MIC
Protocol: as §1

[18] = tested on: Bordetella bronchisepticum 95B; assay: as above; type: cell-based
Protocol: as §1

[19] = tested on: Pasteurella hemolytica 41D; assay: as above; type: cell-based; settings: broth-dilution microtiter; Pasteurella hemolytica 41D; read-out: MIC
Protocol: as §1

Mycoplasma synoviae 40A = assay: as above; type: cell-based; settings: Mycoplasmopsis synoviae, 40A
Protocol: as §1

[20] = tested on: Pasteurella hemolytica 23C; assay: as above; type: cell-based; settings: broth-dilution microtiter; Pasteurella hemolytica 23C; read-out: MIC
Protocol: as §1

[21] = tested on: Mycoplasma gallisepticum 36H; assay: as above; type: cell-based; settings: Mycoplasmoides gallisepticum; broth-dilution microtiter; Mycoplasma gallisepticum 36H; read-out: MIC
Protocol: as §1

[22] = tested on: Pasteurella multocida 22A; assay: as above; type: cell-based; settings: broth-dilution microtiter; Pasteurella multocida 22A; read-out: MIC
Protocol: as §1

[23] = tested on: Pasteurella hemolytica 22C; assay: as above; type: cell-based; settings: broth-dilution microtiter; Pasteurella hemolytica 22C; read-out: MIC
Protocol: as §1

[24] = tested on: Staphylococcus aureus 19C; assay: as above; type: cell-based; settings: broth-dilution microtiter; Staphylococcus aureus 19C; read-out: MIC
Protocol: as §1

[25] = tested on: Pasteurella multocida 40G; assay: as above; type: cell-based; settings: broth-dilution microtiter; Pasteurella multocida 40G; read-out: MIC
Protocol: as §1

Streptococcus sp. 19F = assay: as above; type: cell-based
Protocol: as §1

[26] = tested on: Pasteurella multocida 60A; assay: as above; type: cell-based; settings: broth-dilution microtiter; Pasteurella multocida 60A, avian isolate; read-out: MIC
Protocol: as §1

[27] = tested on: Mycoplasma hyopneumoniae S5972; assay: as above; type: cell-based; settings: Mesomycoplasma hyopneumoniae; broth-dilution microtiter; Mycoplasma hyopneumoniae S5972; read-out: MIC
Protocol: as §1

Mycoplasma hyorhinis 29E = assay: as above; type: cell-based; settings: Mycoplasma, 29E
Protocol: as §1

[28] = agar dilution, Streptococcus pneumoniae Park I
[29] = sc, subcutaneous, read-out: ED50 Subcutaneous
[30] = agar dilution, Staphylococcus epidermidis 222, read-out: MIC
[31] = Staphylococcus epidermidis, EPI1
[32] = agar dilution, Haemophilus influenzae C.L., ampicillin-sensitive strain, read-out: MIC
[33] = agar dilution, Streptococcus Group D X66, read-out: MIC

CCC1OC(=O)CC(O)C(C)C(OC2OC(C)C(O)C(N(C)C)C2O)C(CC=O)CC(C)C(=O)C=CC(C)=CC1CN(Cc1ccccc1)C1CC2CCC1C2 (stereo not drawn) [Compound 6, 23-deoxy-23-[N--benzyl-N--(bicyclo[2.2.1]hept-2-yl)amino]-OMT]
MIC [1, 28]: 0.125 µg/mL (≈ 0.16 µM) | ED50 (Streptococcus pyogenes; po, read-out: ED50 Oral): > 100 mg/kg | ED50 (Streptococcus pyogenes; [29]): > 10 mg/kg | MIC [2, 30]: 0.06 µg/mL (≈ 0.0768 µM) | MIC ([3]; Staphylococcus aureus, X400): 0.25 µg/mL (≈ 0.32 µM) | MIC [4]: 0.06 µg/mL (≈ 0.0768 µM) | MIC [5]: 0.25 µg/mL (≈ 0.32 µM) | MIC ([6]; Haemophilus influenzae): 1 µg/mL (≈ 1.28 µM) | MIC [7]: 0.25 µg/mL (≈ 0.32 µM) | MIC [8]: 0.25 µg/mL (≈ 0.32 µM) | MIC [9, 31]: 0.25 µg/mL (≈ 0.32 µM) | MIC [10]: 0.5 µg/mL (≈ 0.64 µM) | MIC [11]: 0.25 µg/mL (≈ 0.32 µM) | MIC [12]: 0.25 µg/mL (≈ 0.32 µM)

CCC1OC(=O)CC(O)C(C)C(OC2OC(C)C(O)C(N(C)C)C2O)C(CC=O)CC(C)C(=O)C=CC(C)=CC1CN1C2CCCCC2C2CCCCC21 (stereo not drawn) [Compound 25, 23-deoxy-23-(dodecahydro-9H--carbazol-9-yl)-OMT]
ED50 (Staphylococcus aureus): 7.69 mg/kg | MIC [1, 28]: 0.125 µg/mL (≈ 0.165 µM) | ED50 [13]: > 10 mg/kg | ED50 (Streptococcus pyogenes; po, read-out: ED50 Oral): 63 mg/kg | ED50 (Streptococcus pyogenes; [29]): 7.43 mg/kg | ED50 Subcutaneous (Streptococcus pyogenes; subcutaneous): > 10 mg/kg × 2 | MIC ([2]; Staphylococcus epidermidis, 222): 0.25 µg/mL (≈ 0.329 µM) | MIC ([3]; agar dilution, Staphylococcus aureus X400, methicillin-resistant strain, read-out: MIC): 1 µg/mL (≈ 1.32 µM) | MIC [4]: 0.25 µg/mL (≈ 0.329 µM) | MIC [5]: 0.5 µg/mL (≈ 0.659 µM) | MIC [6, 32]: 4 µg/mL (≈ 5.27 µM) | MIC ([7]; agar dilution, Streptococcus Group D 2041, read-out: MIC): 0.5 µg/mL (≈ 0.659 µM) | MIC [8, 33]: 0.5 µg/mL (≈ 0.659 µM) | MIC ([9]; agar dilution, Staphylococcus epidermidis EPI1, read-out: MIC): 0.5 µg/mL (≈ 0.659 µM) | MIC [10]: 1 µg/mL (≈ 1.32 µM) | MIC [11]: 0.5 µg/mL (≈ 0.659 µM) | MIC [12]: 0.5 µg/mL (≈ 0.659 µM) | MIC [14]: 50 µg/mL (≈ 65.9 µM) | MIC [15]: 1.56 µg/mL (≈ 2.06 µM) | MIC [16]: 0.097 µg/mL (≈ 0.128 µM) | MIC [17]: 1.56 µg/mL (≈ 2.06 µM) | MIC [18]: 25 µg/mL (≈ 32.9 µM) | MIC [19]: 1.56 µg/mL (≈ 2.06 µM) | MIC (Mycoplasma synoviae 40A): < 0.048 µg/mL | MIC [20]: 1.56 µg/mL (≈ 2.06 µM) | MIC [21]: 50 µg/mL (≈ 65.9 µM) | MIC [22]: 1.56 µg/mL (≈ 2.06 µM) | MIC [23]: 3.12 µg/mL (≈ 4.11 µM) | MIC [24]: 0.78 µg/mL (≈ 1.03 µM) | MIC [25]: 1.56 µg/mL (≈ 2.06 µM) | MIC (Streptococcus sp. 19F): < 0.048 µg/mL | MIC [26]: 1.56 µg/mL (≈ 2.06 µM) | MIC [27]: < 0.012 µg/mL | MIC (Mycoplasma hyorhinis 29E): < 0.048 µg/mL

CCC1OC(=O)CC(O)C(C)C(OC2OC(C)C(O)C(N(C)C)C2O)C(CC=O)CC(C)C(=O)C=CC(C)=CC1CN1CCC2(CCCCC2)CC1 (stereo not drawn) [Compound 27, 23-deoxy-23-(3-azaspiro[5.5]undecan-3-yl)-OMT]
ED50 (Staphylococcus aureus): 3.08 mg/kg | MIC ([1]; Streptococcus pneumoniae): 0.06 µg/mL (≈ 0.0819 µM) | ED50 [13]: > 10 mg/kg | ED50 (Streptococcus pyogenes; [29]): > 10 mg/kg | MIC [2, 30]: 0.25 µg/mL (≈ 0.341 µM) | MIC ([3]; Staphylococcus aureus, X400): 0.5 µg/mL (≈ 0.682 µM) | MIC [4]: 0.25 µg/mL (≈ 0.341 µM) | MIC [5]: 0.5 µg/mL (≈ 0.682 µM) | MIC [6, 32]: 2 µg/mL (≈ 2.73 µM) | MIC [7]: 0.5 µg/mL (≈ 0.682 µM) | MIC [8, 33]: 0.25 µg/mL (≈ 0.341 µM) | MIC [9, 31]: 0.5 µg/mL (≈ 0.682 µM) | MIC [10]: 2 µg/mL (≈ 2.73 µM) | MIC [11]: 0.5 µg/mL (≈ 0.682 µM) | MIC [12]: 0.5 µg/mL (≈ 0.682 µM)
